Laboratory results reported in PMC9950431, “A bivalent remipede toxin promotes calcium release via ryanodine receptor activation” (Nature Communications, 2023).

Key:
RyR1 = target: T1, RyR1 (Oryctolagus cuniculus, UniProt P11716); assay: Single channel electrophysiology of RyR1 channels inserted into lipid bilayers (exposure to peptide); assay type: biochemical, New Zealand white rabbit (skeletal SR); conditions: for relPo: without WO, relative to control
T1 construct: skeletal SR vesicles were isolated from the back and leg muscles of mature female New Zealand white rabbits; from tissue; host or cells: rabbit back and leg skeletal muscle, sarcoplasmic reticulum vesicles
T1 sequence (P11716 whole entry): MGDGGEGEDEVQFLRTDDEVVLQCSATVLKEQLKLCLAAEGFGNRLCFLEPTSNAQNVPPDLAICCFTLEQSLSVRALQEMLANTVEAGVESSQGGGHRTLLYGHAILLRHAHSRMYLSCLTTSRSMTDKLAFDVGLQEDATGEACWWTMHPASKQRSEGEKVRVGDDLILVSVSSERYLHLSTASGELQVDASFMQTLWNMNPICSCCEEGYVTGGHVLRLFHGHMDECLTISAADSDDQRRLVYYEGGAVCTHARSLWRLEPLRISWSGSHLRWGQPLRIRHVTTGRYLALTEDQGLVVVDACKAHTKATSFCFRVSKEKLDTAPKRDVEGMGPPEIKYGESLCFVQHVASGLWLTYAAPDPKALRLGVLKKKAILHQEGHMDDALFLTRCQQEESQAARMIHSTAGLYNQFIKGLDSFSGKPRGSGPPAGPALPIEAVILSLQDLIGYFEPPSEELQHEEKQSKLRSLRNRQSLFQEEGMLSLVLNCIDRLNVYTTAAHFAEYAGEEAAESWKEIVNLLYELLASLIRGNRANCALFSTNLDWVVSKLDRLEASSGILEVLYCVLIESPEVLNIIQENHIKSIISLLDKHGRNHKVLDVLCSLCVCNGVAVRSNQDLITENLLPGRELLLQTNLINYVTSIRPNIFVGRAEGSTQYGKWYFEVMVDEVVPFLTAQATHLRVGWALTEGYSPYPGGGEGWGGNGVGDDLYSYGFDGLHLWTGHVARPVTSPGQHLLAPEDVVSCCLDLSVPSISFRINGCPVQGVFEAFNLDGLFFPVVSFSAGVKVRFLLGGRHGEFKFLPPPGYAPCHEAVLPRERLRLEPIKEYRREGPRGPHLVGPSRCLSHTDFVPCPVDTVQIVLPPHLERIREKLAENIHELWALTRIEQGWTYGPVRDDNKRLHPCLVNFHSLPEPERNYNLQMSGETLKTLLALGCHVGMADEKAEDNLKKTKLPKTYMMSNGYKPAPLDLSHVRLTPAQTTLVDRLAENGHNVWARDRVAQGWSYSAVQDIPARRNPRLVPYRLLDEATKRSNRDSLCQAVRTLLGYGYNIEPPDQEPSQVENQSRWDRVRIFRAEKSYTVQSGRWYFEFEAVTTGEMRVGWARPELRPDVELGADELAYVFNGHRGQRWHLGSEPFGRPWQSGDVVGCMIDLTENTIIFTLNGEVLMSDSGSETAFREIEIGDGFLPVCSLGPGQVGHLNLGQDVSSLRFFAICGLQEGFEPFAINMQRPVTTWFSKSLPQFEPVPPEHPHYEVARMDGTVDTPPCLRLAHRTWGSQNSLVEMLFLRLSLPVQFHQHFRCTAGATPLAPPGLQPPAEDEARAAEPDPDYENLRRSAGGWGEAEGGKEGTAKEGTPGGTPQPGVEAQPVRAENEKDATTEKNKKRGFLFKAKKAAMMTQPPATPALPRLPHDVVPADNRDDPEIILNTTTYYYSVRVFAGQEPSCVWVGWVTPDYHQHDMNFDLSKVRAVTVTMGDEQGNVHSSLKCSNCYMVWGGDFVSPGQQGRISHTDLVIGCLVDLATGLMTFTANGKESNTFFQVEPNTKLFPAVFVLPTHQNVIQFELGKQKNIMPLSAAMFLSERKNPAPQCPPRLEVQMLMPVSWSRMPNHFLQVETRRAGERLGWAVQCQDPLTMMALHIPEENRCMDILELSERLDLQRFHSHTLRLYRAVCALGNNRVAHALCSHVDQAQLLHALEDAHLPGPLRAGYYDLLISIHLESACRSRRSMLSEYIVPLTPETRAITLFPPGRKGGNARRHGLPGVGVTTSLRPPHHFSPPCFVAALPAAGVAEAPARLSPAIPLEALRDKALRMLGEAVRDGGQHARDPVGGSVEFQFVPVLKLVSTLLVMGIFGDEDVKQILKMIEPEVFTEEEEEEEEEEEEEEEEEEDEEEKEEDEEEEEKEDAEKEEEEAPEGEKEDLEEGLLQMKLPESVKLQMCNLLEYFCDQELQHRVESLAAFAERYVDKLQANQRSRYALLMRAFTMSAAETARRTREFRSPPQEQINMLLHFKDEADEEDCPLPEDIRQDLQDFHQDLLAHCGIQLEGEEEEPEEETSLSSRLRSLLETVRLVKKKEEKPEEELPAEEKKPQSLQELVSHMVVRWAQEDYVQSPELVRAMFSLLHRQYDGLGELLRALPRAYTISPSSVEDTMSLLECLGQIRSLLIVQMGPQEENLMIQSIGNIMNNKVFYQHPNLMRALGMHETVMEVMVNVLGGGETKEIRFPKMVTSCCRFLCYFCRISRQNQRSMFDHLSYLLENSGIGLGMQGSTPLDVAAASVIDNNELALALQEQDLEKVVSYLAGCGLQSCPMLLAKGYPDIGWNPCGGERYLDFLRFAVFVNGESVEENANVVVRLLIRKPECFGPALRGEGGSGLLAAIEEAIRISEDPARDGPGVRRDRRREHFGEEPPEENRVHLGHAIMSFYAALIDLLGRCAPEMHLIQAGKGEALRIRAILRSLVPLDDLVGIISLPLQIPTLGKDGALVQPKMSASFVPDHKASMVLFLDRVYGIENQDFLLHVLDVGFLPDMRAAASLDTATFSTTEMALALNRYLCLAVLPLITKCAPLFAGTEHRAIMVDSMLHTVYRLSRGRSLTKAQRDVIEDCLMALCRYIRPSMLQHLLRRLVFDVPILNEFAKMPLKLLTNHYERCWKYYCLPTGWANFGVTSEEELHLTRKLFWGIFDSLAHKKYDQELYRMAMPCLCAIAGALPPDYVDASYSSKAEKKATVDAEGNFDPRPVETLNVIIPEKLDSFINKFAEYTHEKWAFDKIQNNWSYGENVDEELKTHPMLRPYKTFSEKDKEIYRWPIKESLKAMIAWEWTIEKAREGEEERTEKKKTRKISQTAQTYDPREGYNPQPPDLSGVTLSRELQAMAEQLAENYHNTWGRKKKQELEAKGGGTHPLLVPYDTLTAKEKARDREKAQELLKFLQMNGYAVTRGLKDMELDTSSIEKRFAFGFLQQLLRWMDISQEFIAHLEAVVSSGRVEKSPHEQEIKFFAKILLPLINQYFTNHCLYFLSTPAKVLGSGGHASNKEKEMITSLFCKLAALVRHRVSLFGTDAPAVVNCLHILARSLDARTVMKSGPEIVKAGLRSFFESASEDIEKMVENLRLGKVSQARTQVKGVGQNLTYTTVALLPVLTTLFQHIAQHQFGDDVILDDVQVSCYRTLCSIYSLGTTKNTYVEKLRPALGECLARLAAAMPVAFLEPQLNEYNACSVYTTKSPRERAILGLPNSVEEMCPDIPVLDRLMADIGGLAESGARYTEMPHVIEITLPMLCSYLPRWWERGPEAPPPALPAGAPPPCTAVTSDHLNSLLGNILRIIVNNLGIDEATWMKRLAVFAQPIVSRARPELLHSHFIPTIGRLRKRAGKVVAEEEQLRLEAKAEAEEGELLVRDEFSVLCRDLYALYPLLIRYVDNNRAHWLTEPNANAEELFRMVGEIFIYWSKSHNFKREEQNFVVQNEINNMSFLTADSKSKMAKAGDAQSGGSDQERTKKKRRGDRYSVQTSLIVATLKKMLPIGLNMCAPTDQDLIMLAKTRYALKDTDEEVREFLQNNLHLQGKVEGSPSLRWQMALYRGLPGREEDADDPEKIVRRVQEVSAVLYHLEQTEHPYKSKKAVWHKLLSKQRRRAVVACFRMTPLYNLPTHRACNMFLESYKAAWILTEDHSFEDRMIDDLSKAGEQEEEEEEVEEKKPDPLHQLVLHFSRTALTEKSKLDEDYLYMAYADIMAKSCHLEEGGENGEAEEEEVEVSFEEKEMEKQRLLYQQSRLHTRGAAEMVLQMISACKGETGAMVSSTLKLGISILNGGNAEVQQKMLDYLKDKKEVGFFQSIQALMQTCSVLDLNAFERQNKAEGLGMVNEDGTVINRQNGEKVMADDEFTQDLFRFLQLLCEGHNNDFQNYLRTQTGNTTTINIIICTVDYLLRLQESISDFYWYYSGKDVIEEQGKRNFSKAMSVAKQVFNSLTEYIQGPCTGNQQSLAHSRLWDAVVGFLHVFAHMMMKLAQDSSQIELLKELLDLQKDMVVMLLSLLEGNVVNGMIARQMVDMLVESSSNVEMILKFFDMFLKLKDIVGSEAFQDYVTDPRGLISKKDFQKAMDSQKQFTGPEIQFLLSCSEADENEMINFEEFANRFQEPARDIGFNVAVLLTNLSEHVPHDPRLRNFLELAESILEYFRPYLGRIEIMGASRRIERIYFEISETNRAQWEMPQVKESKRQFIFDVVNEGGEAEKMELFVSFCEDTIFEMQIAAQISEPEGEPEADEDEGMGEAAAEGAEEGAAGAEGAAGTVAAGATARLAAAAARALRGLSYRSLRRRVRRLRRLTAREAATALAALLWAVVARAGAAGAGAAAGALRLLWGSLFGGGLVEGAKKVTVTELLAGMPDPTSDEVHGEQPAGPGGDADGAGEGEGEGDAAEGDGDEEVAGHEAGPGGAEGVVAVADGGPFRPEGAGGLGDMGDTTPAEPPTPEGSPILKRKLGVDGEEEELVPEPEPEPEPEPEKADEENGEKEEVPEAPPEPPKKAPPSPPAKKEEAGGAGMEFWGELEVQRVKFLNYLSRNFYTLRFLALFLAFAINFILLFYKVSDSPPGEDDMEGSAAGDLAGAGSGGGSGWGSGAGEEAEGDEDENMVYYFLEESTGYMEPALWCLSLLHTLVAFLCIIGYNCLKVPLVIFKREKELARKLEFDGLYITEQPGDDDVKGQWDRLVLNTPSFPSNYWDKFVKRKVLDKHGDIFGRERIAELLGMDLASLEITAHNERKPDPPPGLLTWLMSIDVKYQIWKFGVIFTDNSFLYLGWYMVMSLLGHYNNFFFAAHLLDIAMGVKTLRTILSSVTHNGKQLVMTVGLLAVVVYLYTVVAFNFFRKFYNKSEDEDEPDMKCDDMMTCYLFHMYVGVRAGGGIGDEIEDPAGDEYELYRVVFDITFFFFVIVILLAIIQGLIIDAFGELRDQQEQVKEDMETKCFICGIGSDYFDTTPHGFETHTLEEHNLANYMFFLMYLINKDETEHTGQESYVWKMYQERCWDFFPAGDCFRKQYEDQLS
Method: Cardiac SR was prepared from mature female crossbred sheep hearts, and skeletal SR vesicles were isolated from the back and leg muscles of mature female New Zealand white rabbits[29],[54] with approval from the ANU Animal Experiment Ethics Committee Protocol Number A2015/35. […] Solutions for vesicle incorporation contained (mM): cis 230 caesium methanesulfonate (CsMS); 20 CsCl; 1 CaCl2 and 10 […] (TES) pH 7.4 and trans 30 CsMS; 20 CsCl; 1 CaCl2 10 TES; pH 7.4. […] Following incorporation, 200 mM CsMS was added to the trans solution and the cis solution exchanged with recording solution containing (mM): 230 CsMS; 20 CsCl; 0.001 CaCl2;10 TES and pH 7.4, with [Ca^2+] set by a [BAPTA] determined using a Ca^2+ electrode. The cytoplasmic and luminal solutions contained 1 μM and 1 mM Ca^2+ respectively, with symmetrical 250/250 mM CsMS. Bilayer voltage was switched between +40 mV and −40 mV (cytoplasmic voltage relative to grounded luminal solution) every 30 s. The activity of the RyR channels used here included 1 µM Ca^2+ in the cytoplasmic solution and 1 mM Ca^2+ in the luminal solution[29],[55]. Electrophysiology experiments were analysed using Channel 2 (P.W. Gage, M. Smith, Australian National University) and Channel 3 (N.W. Laver, University of Newcastle, Australia) software, available from the authors upon request. Statistical analyses were performed using Microsoft Excel (Office 365). […] Following most incorporation events, a single channel only was active in the bilayer and channel open probability (Po), mean open time (To), mean closed time (Tc) and open event frequency (Fo) were measured. When 2–4 channels were active in a bilayer, PO was approximated from the fractional mean current (I’F), i.e., mean current divided by maximum current. I’F is equal to PO in a single channel and indicates the average PO of multiple channels in a bilayer. […] Experiments at UN also included a minority of multi-channel experiments. The bilayer rigs, solution composition, source of channels, data acquisition and analyses methods were all identical.
Statistical analysis of single channel data was performed using Excel spreadsheets and embedded Students t-test functions or a sign test as indicated in the graphs in Figs. 1 and 3.

[1] = system: α3β2/α3β4 nAChR (α3-containing nAChR); assay: FLIPR Ca2+ assay, inhibition of endogenous α3-containing nAChR; assay type: cell-based, human; conditions: for Ca2+ response relative to control response: 3 µM Xt3a pre-treatment, nicotine 30 μM, over 300 s
Method: SH-SY5Y human neuroblastoma cells (European Collection of Authenticated Cell Culture, Sigma Aldrich, 94030304-1VL) were cultured in RPMI media (ThermoFisher Scientific, Scoresby, Australia) supplemented with 15% foetal bovine serum and L-glutamine (1 mM) and passaged at approximately 80% confluency with TrypLE Express (Thermo Fisher, Australia). For fluorescence imaging, cells were plated on CellBIND (Corning) 384-well black-walled imaging plates at a density of 20,000–30,000 cells/well in complete media and cultured for 48 h at 37 °C/5% CO2.
Briefly, SH-SY5Y cells were loaded with Calcium 4 no-wash dye (Molecular Devices) diluted in physiological salt solution (composition in mM: NaCl 140, D-glucose 11.5, KCl 5.9, MgCl2 1.4, NaH2PO4 1.2, NaHCO3 5, CaCl2 1.8, HEPES 10) for 30 min at 37 °C. A two-addition FLIPR^Tetra (Molecular Devices) protocol using the following settings was used to measure fluorescence responses: excitation 470–495 nm; emission 515–575 nm; excitation intensity 80%; excitation duration 0.8 s; gain 140; read interval 1/s; read number 300/addition. Responses mediated via endogenously expressed ion channels were elicited by addition of: choline (30 μM)/PNU-120596 (10 μM) for α7 nAChR-mediated responses; nicotine (30 μM) for α3β2/α3β4 nAChR-mediated responses; KCl (90 mM)/CaCl2 (5 mM) for CaV1.3-mediated responses; KCl (90 mM)/CaCl2 (5 mM) + nifedipine (10 μM) for CaV2.2-mediated responses; vertridine (70 μM) for NaV1.2-mediated responses; and veratridine (4 μM)/OD1 (300 nM) for NaV1.7-mediated responses. Raw fluorescence readings were converted to response over baseline using the analysis tool Screenworks 3.1.1.4 (Molecular Devices) and were expressed relative to the maximum increase in fluorescence of control responses and plotted using GraphPad Prism 9.3.1.
In the cell-based FLIPR assays statistical analysis was performed using GraphPad Prism 9.3.1. Statistical significance was defined as p < 0.05, and determined by one-sample t-test assessing difference to the control value of 100%. In α7 nAChR, α3-containing nAChR, CaV1.3, CaV2.2, NaV1.2 and NaV1.7 channels (Supplementary Fig. 5B), with distribution (t) and degrees of freedom (df) being: t = 0.9683, df = 2 (α7); t = 1.338, df = 2 (α3); t = 1.775, df = 2 (NaV1.2); t = 1.478

Question: Which “activity against RyR1 (discussion)” value (RyR1) does the source give for φ-Xibalbin3-Xt3a here?
Answer: even more potent than IpTxA

Question: And the relPo (RyR1; 10 pM Xt3a, mean (sem in row below))?
Answer: 4.209

Question: And the relPo (RyR1; 10 pM Xt3a, replicate CT1012 n)?
Answer: 4.171

Question: What about the relPo (RyR1; 10 pM Xt3a, replicate CT1013 n) of the same substance?
Answer: 17.6667

Question: And the relPo (RyR1; 10 pM Xt3a, replicate CT1024 n)?
Answer: 1.745

Question: What about the relPo (RyR1; 10 pM Xt3a, replicate CT1051 n) of the same substance?
Answer: 0.553

Question: What about the relPo (RyR1; 10 pM Xt3a, replicate CT1052 n) of the same substance?
Answer: 1.086

Question: What about the relPo (RyR1; 10 pM Xt3a, replicate CT1055 n) of the same substance?
Answer: 3.339

Question: What about the relPo (RyR1; 10 pM Xt3a, replicate CT1143 n) of the same substance?
Answer: 0.669

Question: And the relPo (RyR1; 10 pM Xt3a, replicate CT1144 n)?
Answer: 11.3

Question: What about the relPo (RyR1; 10 pM Xt3a, replicate CT1145 n) of the same substance?
Answer: 13.6431

Question: And the relPo (RyR1; 10 pM Xt3a, replicate CT1146 n)?
Answer: 1.397

Question: What about the “channel open probability (PO) relative to baseline” value (RyR1; 10 pM to 1 µM) of the same substance?
Answer: significant changes in all Xt3a concentrations tested

Question: What about the “substate level, % of maximum conductance” value (RyR1; 100 pM Xt3a, −40 mV, prolonged gating to substate levels) of the same substance?
Answer: < 50%

Question: And the relPo (RyR1; 100 pM Xt3a, mean (sem in row below))?
Answer: 2.735

Question: And the relPo (RyR1; 100 pM Xt3a, replicate CT1012 n)?
Answer: 1.829

Question: And the relPo (RyR1; 100 pM Xt3a, replicate CT1013 n)?
Answer: 17

Question: And the relPo (RyR1; 100 pM Xt3a, replicate CT1024 n)?
Answer: 1.169

Question: And the relPo (RyR1; 100 pM Xt3a, replicate CT1051 n)?
Answer: 0.6185

Question: And the relPo (RyR1; 100 pM Xt3a, replicate CT1052 n)?
Answer: 1.17

Question: And the relPo (RyR1; 100 pM Xt3a, replicate CT1055 n)?
Answer: 1.101

Question: And the relPo (RyR1; 100 pM Xt3a, replicate CT1143 n)?
Answer: 1.262

Question: And the relPo (RyR1; 100 pM Xt3a, replicate CT1144 n)?
Answer: 6.375

Question: What about the relPo (RyR1; 100 pM Xt3a, replicate CT1145 n) of the same substance?
Answer: 3.125

Question: What about the relPo (RyR1; 100 pM Xt3a, replicate CT1146 n) of the same substance?
Answer: 1.411

Question: What about the “decline in PO compared with 10 nM Xt3a” value (RyR1; 0.1–1 µM Xt3a) of the same substance?
Answer: ~ 50%

Question: What about the “full conductance channel openings (high affinity activation)” value (RyR1; Xt3a up to 10 nM) of the same substance?
Answer: led to an increase in full conductance channel openings

Question: What about the “voltage-dependent promotion of channel substate activity” value (RyR1; −40 mV vs +40 mV, RyR1 and RyR2) of the same substance?
Answer: greater in the presence of nanomolar concentrations of Xt3a in RyR1 than in RyR2

Question: And the “Ca2+ response relative to control response” value ([1]; replicate 1)?
Answer: 102.763%

Question: And the “Ca2+ response relative to control response” value ([1]; replicate 2)?
Answer: 100.13%

Question: What about the “Ca2+ response relative to control response” value ([1]; replicate 3) of the same substance?
Answer: 100.441%

Question: What about the “inhibition of Ca2+ responses” value ([1]; Xt3a 3 µM) of the same substance?
Answer: did not inhibit Ca^2+ responses
